The values below come from publication PMC12220852, “An adamantane‐based ligand as a novel chemical tool for thermosensory TRPM8 channel therapeutic modulation” (The Febs Journal, 2025).

Molecules are shown by their SMILES. Entries after “also recorded” stand apart in the source; their conditions may differ.

Test [1] relates to oxaliplatin‐induced peripheral cold allodynia in mice. As to the kind of experiment: Dry ice test in oxaliplatin-induced cold allodynia. The test is classed as in vivo, mouse. The following applies: 5 mg·kg^−1 i.p., 30 and 90 min after administration, vs vehicle, oxaliplatin-treated mice. Here is the method: Given the inhibitory activity of compound 23 and the antinociceptive effects of TRPM8 antagonists described in models of oxaliplatin (OXP)‐induced neuropathy, we conducted a behavioral experiment in mice to assess the antinociceptive effects of compound 23 after repeated oxaliplatin administration. Oxaliplatin was intraperitoneally (i.p.) administered every other day for 5 days at 6 mg·kg^−1, reaching a total accumulative dose of 18 mg·kg^−1. […] The OXP‐induced sensitization to cold stimuli was also evident with the dry ice test, as evidenced by the significant reduction in the latency to cold stimulation through the application of a dry ice pellet against the paw on a glass surface (Fig. 8B, P < 0.05 Before OXP vs. After OXP). […]
The systemic effect of compound 23 was assessed after intraperitoneal administration at 5 mg·kg^−1, dissolved in a solution of 2% Cremophor and 5% DMSO in saline, with a volume of 10 mL·kg^−1. […] Nociceptive sensitivity was evaluated for 30‐ and 90‐min postinjection using the acetone drop test (7 days after the first oxaliplatin dose) and the dry ice test (9 days after the last oxaliplatin dose).
The dry ice test was conducted as previously described with some modifications. […] To determine the threshold value for each mouse, the latency to paw withdrawal was recorded for each hindpaw and subsequently averaged. […]

Test [2] has as its system capsaicin‐induced excitability in murine nociceptors. The experiment in a line: Multielectrode array (MEA): capsaicin-induced firing in nociceptors. The settings on record: 1 μM compound, 0.5 μM capsaicin, P2/P1. The test is classed as cell-based. The protocol:
Additionally, we investigated the effect of compound 23 on capsaicin and AITC‐induced excitability in murine nociceptors. Employing an IC50 value of 1 μM for TRPV1 and 5 μM for TRPA1 of firing inhibition by compound 23 (Fig. 4), we interrogated its ability to modulate neuronal excitability. As for TRPM8, our experimental design involved a protocol of dual agonist pulses interspersed with a washing pulse to minimize agonist‐induced channel desensitization. Compound 23 was administered 1 min prior to and during the second agonist pulse.
Primary cultures of neonatal dorsal root ganglia were used for multielectrode array (MEA) and patch‐clamp experiments following established methodologies previously described. Neonatal dorsal root ganglia (DRGs) were obtained from Wistar rats (3–5 days old) and were isolated and digested with 0.25% (w/v) collagenase (type IA) in DMEM GlutaMax with 1% (v/v) penicillin/streptomycin (P/S) solution for 1 h at 37 °C in a 5% CO2 Thermo Scientific incubator. Following digestion, DRGs were mechanically dissociated and passed through a 100 μm cell strainer to obtain single‐cell suspensions. Suspensions were washed with DMEM GlutaMax with 10% (v/v) fetal bovine serum (FBS) and 1% (v/v) penicillin/streptomycin (P/S). Cells were then seeded in microelectrode array chambers coated with poly‐L‐lysine (8.3 μg·mL^−1) and laminin (5 μg·mL^−1). […]

As for `O=C(COC(=O)c1ccccc1-c1ccccc1)NC12CC3CC(CC(C3)C1)C2` [Compound 23, 2‐((3S,5S,7S)‐adamantan‐1‐ylamino)‐2‐oxoethyl [1,1′‐biphenyl]‐2‐carboxylate], the “effect on withdrawal latency to dry ice, systemic treatment” value in test [1] is “did not exhibit cold antinociceptive effects; also recorded: did not significantly affect”. Further, the “attenuation of capsaicin‐induced firing” value in test [2] was 30%.
